Patent publication US20210094954A1, “PREPARATION METHODS AND APPLICATIONS OF 3,5-DISUBSTITUTED METHYLPYRAZOLO[1,5-A]PYRIMIDINE-7-HYDROXYLIC SALTS” (priority 2019, published 2021)
Where two headings read alike, the source gives them in different places.

Columns and labels:
Assay type in all cases: cell-based
Bacillus cereus 2 = assay: microbe, parasite or virus in culture; conditions: Bacillus cereus, 2; 37° C., 24 hours; read-out: MIC values of in vitro antibacterial test results
Bacillus subtilis 168 = assay: microbe, parasite or virus in culture; conditions: Bacillus subtilis, 168; 37° C., 24 hours; read-out: MIC values of in vitro antibacterial test results
[1] = test system: Enterococcus faecalis 29212; assay: microbe, parasite or virus in culture; conditions: Enterococcus faecalis, 29212; 37° C., 24 hours; read-out: MIC values of in vitro antibacterial test results
[2] = test system: Enterococcus faecalis F2518(VRE); assay: microbe, parasite or virus in culture; conditions: Enterococcus faecalis, VRE, 24 h, read-out: MIC values of in vitro antibacterial test results
[3] = test system: Staphylococcus aureus 29231; assay: microbe, parasite or virus in culture; conditions: Staphylococcus aureus, 29231; 37° C., 24 hours; read-out: MIC values of in vitro antibacterial test results
[4] = test system: Staphylococcus aureus 43300(MRSA); assay: microbe, parasite or virus in culture; conditions: Staphylococcus aureus, MRSA, 24 h, read-out: MIC values of in vitro antibacterial test results
[5] = test system: Staphylococcus aureus 703(MRSA); assay: microbe, parasite or virus in culture; conditions: Staphylococcus aureus, MRSA, 24 h, read-out: MIC values of in vitro antibacterial test results
[6] = test system: Streptococcus pneumoniae 6303 (PRSP); assay: microbe, parasite or virus in culture; conditions: Streptococcus pneumoniae, PRSP, 24 h, read-out: MIC values of in vitro antibacterial test results
[7] = test system: Streptococcus pneumoniae M2; assay: microbe, parasite or virus in culture; conditions: Streptococcus pneumoniae, M2; 37° C., 24 hours; read-out: MIC values of in vitro antibacterial test results
[8] = test system: Streptococcus agalactia B group; assay: microbe, parasite or virus in culture; conditions: Streptococcus; 37° C., 24 hours; read-out: MIC values of in vitro antibacterial test results
[9] = test system: Streptococcus pneumoniae 10351; assay: microbe, parasite or virus in culture; conditions: Streptococcus pneumoniae, 10351; 37° C., 24 hours; read-out: MIC values of in vitro antibacterial test results
[10] = test system: Bacillus anthracis Bacillus 1; assay: microbe, parasite or virus in culture; conditions: Bacillus anthracis, 24 h, read-out: MIC values of in vitro antibacterial test results
Diphtheria bacilli = assay: organism not typed; conditions: 37° C., 24 hours; read-out: MIC values of in vitro antibacterial test results
Clostridium perfringens = assay: microbe, parasite or virus in culture; conditions: Clostridium perfringens, 24 h, read-out: MIC values of in vitro antibacterial test results
Oral Candida = assay: microbe, parasite or virus in culture; conditions: Candida
Peel fungus = assay: organism not typed; conditions: 37° C., 24 hours; read-out: MIC values of in vitro antibacterial test results
[11] = test system: F2518(VRE), Staphylococcus aureus resistant strain 43300(MRSA), 703 (MRSA), pneumococcal resistance bacteria 6303(PRSP); assay: microbe, parasite or virus in culture; conditions: read-out: MIC values (μM)
[12] = 37° C., 24 hours, read-out: MIC values of in vitro antibacterial test results

| Compound | MIC (Bacillus cereus 2) [µg/mL] | MIC (Bacillus subtilis 168) [µg/mL] | MIC [1] [µg/mL] | MIC [2] [µg/mL] | MIC [3] [µg/mL] | MIC [4] [µg/mL] | MIC [5] [µg/mL] | MIC [6] [µg/mL] | MIC [7] [µg/mL] | MIC [8] [µg/mL] | MIC [9] [µg/mL] | MIC [10] [µg/mL] | MIC (Diphtheria bacilli) [µg/mL] | MIC (Clostridium perfringens) [µg/mL] | MIC (Oral Candida; [12]) [µg/mL] | MIC (Peel fungus) [µg/mL] | MIC [11] [µg/mL] | MIC (Oral Candida; read-out: MIC values (μM)) [µg/mL] |
| --- | --- | --- | --- | --- | --- | --- | --- | --- | --- | --- | --- | --- | --- | --- | --- | --- | --- | --- |
| Cc1nn2c([O-])cc(-c3ccc(F)cc3F)nc2c1-c1ccc(F)cc1F.[Na+] [Compound 12, Sodium 3,5-bis(2,4-difluorophenyl)-2-methylpyrazolo[1,5-α]pyrimidin-7-olate] | < 100 | > 150 | < 150 | < 150 | > 150 | < 150 | < 150 | > 150 | < 150 | > 150 | > 150 | > 150 | > 150 | > 150 | < 150 | < 150 | < 100 | – |
| CC(=O)Oc1ccc(-c2cc([O-])n3nc(C)c(-c4ccc(F)cc4F)c3n2)cc1.[Na+] [Compound 13, Sodium 5-(4-acetoxyphenyl)-3-(2,4-difluorophenyl)-2-methylpyrazolo[1,5-α]pyrimidin-7-olate] | < 150 | > 150 | < 150 | < 150 | > 150 | < 100 | < 150 | > 150 | < 100 | > 150 | > 150 | > 150 | > 150 | > 150 | < 100 | < 150 | < 100 | < 100 |
| Cc1nn2c([O-])cc(-c3ccc(C(F)(F)F)nc3)nc2c1-c1ccc(F)cc1F.[Na+] [Compound 14, Sodium 3-(2,4-difluorophenyl)-2-methyl-5-(6-(trifluoromethyl)pyridin-3-yl)pyrazolo[1,5-α] pyrimidin-7-olate] | < 100 | < 100 | < 100 | < 150 | < 100 | < 150 | < 100 | < 100 | < 150 | > 150 | < 100 | > 150 | > 150 | > 150 | < 100 | > 150 | < 100 | < 100 |
| Cc1nn2c([O-])cc(-c3ccc(C#N)nc3)nc2c1-c1ccc(F)cc1F.[Na+] [Compound 15, sodium 5-(6-cyanopyridin-3-yl)-3-(2,4-difluorophenyl)-2-methylpyrazolo[1,5-α]pyrimidin-7-olate] | < 100 | < 150 | < 100 | < 150 | < 100 | < 150 | < 100 | < 150 | < 100 | > 150 | < 100 | > 150 | > 150 | > 150 | < 150 | > 150 | < 100 | – |
| Cc1nn2c([O-])cc(-c3ccc([N+](=O)[O-])nc3)nc2c1-c1ccc(F)cc1F.[Na+] [Compound 16, sodium 3-(2,4-difluorophenyl)-2-methyl-5-(6-nitropyridin-3-yl)pyrazolo[1,5-α]pyrimidin-7-olate] | < 100 | < 150 | < 100 | < 150 | < 100 | < 150 | < 100 | < 100 | < 150 | > 150 | < 100 | > 150 | > 150 | > 150 | < 100 | > 150 | < 100 | < 100 |
| COc1ccc(-c2cc([O-])n3nc(C)c(-c4ccc(F)cc4F)c3n2)cn1.[Na+] [Compound 17, sodium 3-(2,4-difluorophenyl)-5-(6-methoxypyridin-3-yl)-2-methylpyrazolo[1,5-α]pyrimidin-7-olate] | < 150 | > 150 | < 150 | < 150 | > 150 | < 100 | < 150 | > 150 | < 100 | > 150 | > 150 | > 150 | > 150 | > 150 | < 100 | < 150 | < 100 | < 100 |
| Cc1nn2c([O-])cc(-c3ccc(N(C)C)nc3)nc2c1-c1ccc(F)cc1F.[Na+] [Compound 18, Sodium 3-(2,4-difluorophenyl)-5-(6-(dimethylamino)pyridin-3-yl)-2-methylpyrazolo[1,5-α]pyrimidin-7-olate] | < 100 | > 150 | < 150 | < 150 | > 150 | < 100 | < 150 | > 150 | < 100 | > 150 | > 150 | > 150 | > 150 | > 150 | > 150 | < 150 | < 100 | – |
| Cc1nn2c([O-])cc(-c3ccc([O-])nc3)nc2c1-c1ccc(F)cc1F.[Na+].[Na+] [Compound 19, Disodium 3-(2,4-difluorophenyl)-2-methyl-5-(6-hydroxypyridin-3-yl)pyrazolo[1,5-α]pyrimidin-7-olate] | < 100 | > 150 | < 150 | < 150 | > 150 | < 100 | < 150 | > 150 | < 100 | > 150 | > 150 | > 150 | > 150 | > 150 | > 150 | < 150 | < 100 | – |
| Cc1nn2c([O-])cc(-c3ccc(C#N)cc3)nc2c1-c1ccc(F)cc1F.[K+] [Compound 20, Potassium 5-(4-cyanophenyl)-3-(2,4-difluorophenyl)-2-methylpyrazolo[1,5-α]pyrimidin-7-olate] | < 100 | < 100 | < 100 | < 150 | < 100 | < 150 | < 100 | < 150 | < 100 | > 150 | < 100 | > 150 | < 150 | < 150 | < 150 | > 150 | < 100 | – |
| Cc1nn2c([O-])cc(-c3ccc(C(=O)[O-])nc3)nc2c1-c1ccc(F)cc1F.[Na+].[Na+] [Compound 21, Disodium 5-(3-(2,4-difluorophenyl)-2-methyl-7-hydroxypyrazolo[1,5-α]pyrimidin-5-yl)picolinate] | < 150 | > 150 | < 150 | < 150 | > 150 | < 100 | < 150 | > 150 | < 100 | > 150 | > 150 | > 150 | > 150 | > 150 | < 100 | < 150 | < 100 | < 100 |
| Cc1nn2c([O-])cc(-c3ccc(C(F)(F)F)cc3)nc2c1-c1ccc(F)cc1F.[K+] [Compound 22, potassium 3-(2,4-difluorophenyl)-2-methyl-5-(4-(trifluoromethyl)phenyl)pyrazolo[1,5-α]pyrimidin-7-olate] | < 100 | < 100 | < 150 | < 150 | < 100 | < 100 | < 100 | < 150 | < 100 | < 150 | < 150 | > 150 | > 150 | > 150 | < 100 | < 150 | < 100 | < 100 |
